Data as given in US20220249643A1, “ANTI-NEOPLASTIC COMBINED PHARMACEUTICAL COMPOSITION AND APPLICATION THEREOF” (priority 2019, published 2022).
Entries after “also recorded” stand apart in the source; their conditions may differ. Where two headings read alike, the source gives them in different places.

How the values were obtained:
[1] = tested on: mouse Lewis lung carcinoma (LLC); type: in vivo, C57BL/6 mice; settings: vs Con
[2] = tested on: mouse Lewis lung carcinoma (LLC); type: in vivo, C57BL/6 mice; settings: for Significance, survival (intergroup comparison): vs Con
Plasmodium yoelii = assay: Infection rate of Plasmodium (parasitemia) in tumor-bearing mice, Plasmodium yoelii; type: in vivo
[3] = type: in vivo, C57BL/6 mice
Excerpt: The effects of the chemotherapeutic agent and Plasmodium infection on the weight of tumor-bearing mice were observed.

[4] = Example 5, CTX 20 mg/kg×3 ip day 6, 13, 20, Py day 7
[5] = Example 6, CTX 20 mg/kg×3 ip day 6, 13, 20, Pc day 7
[6] = Example 1, GEM 100 mg/kg ip on day 3
[7] = Example 1, GEM 100 mg/kg ip on day 6
[8] = Example 2, GEM divided 50 mg/kg ip day 6 and day 13
[9] = Example 2, GEM single dose 100 mg/kg ip day 6
[10] = Example 3, GEM 50 mg/kg ip day 6 and day 13, Py day 7
[11] = Example 4, GEM 50 mg/kg ip day 6 and day 13, Pc day 7

Description for Plasmodium chabaudi: (III) Preparation of thin blood film and microscopic examination: about 1-1.5 μL of blood was collected from tails of mice and smeared on slides so that a long tongue-shaped thin blood film with a length of 2.5 cm was prepared and blow-dried with a blower. The blood film was infiltrated with methanol for 1 min, stained with 1× Giemsa stain for 30 min, rinsed with tap water and blow-dried. The infection rate of Plasmodium was observed by a 100× oil immersion objective. Changes of the infection rate of Plasmodium were observed.
(V) Inoculation of tumor-bearing mice: 7 days after tumor was subcutaneously inoculated, each mouse was inoculated with 0.2 mL of Plasmodium, that is, 5×10^5 Plasmodium parasites.
(III) Statistics of the infection rate of Plasmodium: the infection rate of Plasmodium was evaluated by a percentage of red blood cells infected with Plasmodium in mice, where the calculation formula was (the number of red blood cells infected with Plasmodium/a total number of red blood cells)×100%. Specific procedures were as follows: blood was taken from tail veins and smeared on a slide, fixed with methanol, and stained with Giemsa stain. The number of red blood cells infected with Plasmodium and the total number of red blood cells were observed under a microscope. The total number of red blood cells was about 1000.

## O=P1(N(CCCl)CCCl)NCCCO1 (centres unmarked) [CTX, cyclophosphamide]
[1]; [4]
  Significance, tumor growth (intergroup comparison): * (“*” represents p<0.05)
[1]; [5]
  Significance, tumor growth (intergroup comparison): * (“*” represents p<0.05)
[2]; [4]
  median survival time: 37 days
[2]; Example 5
  Significance, survival (intergroup comparison): ** (“**” represents p<0.01)
[2]; [5]
  median survival time: 39.5 days
[2]; Example 6
  Significance, survival (intergroup comparison): * (“*” represents p<0.05)
Plasmodium yoelii; Example 5, CTX 20 mg/kg×3 ip
  effect on Plasmodium infection: relatively small effect on Plasmodium
[3]; Example 5, CTX 20 mg/kg×3 ip, Py day 7
  effect on weight of tumor-bearing mice: affected little
[3]; Example 6, CTX 20 mg/kg×3 ip, Pc day 7
  effect on weight of tumor-bearing mice: affected little
Plasmodium chabaudi; Example 6, CTX 20 mg/kg×3 ip
  effect on Plasmodium infection: relatively small effect on Plasmodium chabaudi

## [NH2][Pt]([NH2])([Cl])[Cl] [DDP, cis-platinum]
[1]; Example 8, DDP 1 mg/kg×7 ip every two days from day 7, Py day 7
  Significance, tumor growth (intergroup comparison): ** (“**” represents p<0.01)
[2]; Example 8, DDP 1 mg/kg×7 ip, Py day 7
  median survival time: 30 days
Plasmodium yoelii; Example 8, DDP 1 mg/kg×7 ip, vs single Plasmodium yoelii group
  effect on Plasmodium infection (parasitemia): inhibitory effect on Plasmodium

## Nc1ccn([C@@H]2O[C@H](CO)[C@@H](O)C2(F)F)c(=O)n1 [GEM, gemcitabine]
[1]; [6]
  Significance, tumor growth (intergroup comparison): ** (“**” represents p<0.01)
[1]; [7]
  Significance, tumor growth (intergroup comparison): ** (“**” represents p<0.01)
[1]; [8]
  Significance, tumor growth (intergroup comparison): ** (“**” represents p<0.01)
[1]; [9]
  Significance, tumor growth (intergroup comparison): ** (“**” represents p<0.01)
[1]; [10]
  Significance, tumor growth (intergroup comparison): ** (“**” represents p<0.01)
[1]; [11]
  Significance, tumor growth (intergroup comparison): ** (“**” represents p<0.01)
[2]; [6]
  median survival time: 34.5 days
  Significance, survival (intergroup comparison): * (“*” represents p<0.05)
[2]; [7]
  median survival time: 33 days
  Significance, survival (intergroup comparison): ** (“**” represents p<0.01)
[2]; [8]
  median survival time: 38.5 days
[2]; [9]
  median survival time: 33 days
[2]; [10]
  median survival time: 36 days
  Significance, survival (intergroup comparison): ** (“**” represents p<0.01)
[2]; [11]
  median survival time: 35 days
Plasmodium yoelii; Example 1, GEM 100 mg/kg ip day 3 or day 6
  effect on Plasmodium infection: certain inhibitory effect on Plasmodium yoelii but will not eliminate Plasmodium
Plasmodium yoelii; Example 2, GEM single dose or divided doses, total 100 mg/kg
  effect on Plasmodium infection: certain inhibitory effect on Plasmodium
Plasmodium yoelii; Example 3, GEM 50 mg/kg ip day 6 and day 13
  effect on Plasmodium infection: certain inhibitory effect on Plasmodium yoelii but will not eliminate Plasmodium yoelii
[3]; Example 1, GEM 100 mg/kg ip, Py day 7
  effect on weight of tumor-bearing mice: affected little
[3]; Example 2, GEM total 100 mg/kg ip, Py day 7
  effect on weight of tumor-bearing mice: affected little
[3]; [10]
  effect on weight of tumor-bearing mice: affected little
[3]; [11]
  effect on weight of tumor-bearing mice: affected little
Plasmodium chabaudi; Example 4, GEM 50 mg/kg ip day 6 and day 13
  effect on Plasmodium infection: inhibitory effect on Plasmodium chabaudi but will not eliminate Plasmodium

## Cc1c(O)cccc1C(=O)N[C@@H](CSc1ccccc1)[C@H](O)CN1C[C@H]2CCCC[C@H]2C[C@H]1C(=O)NC(C)(C)C [NFV, nelfinavir]
[1]; Example 12, NFV 400 mg/kg×10, intraperitoneal injection, from day 10, Py day 7
  Significance, tumor growth (intergroup comparison): ** (“**” represents p<0.01)
[2]; Example 12, NFV 400 mg/kg×10 from day 10, Py day 7
  median survival time: 34 days
Plasmodium yoelii; Example 12, NFV 400 mg/kg×10
  effect on Plasmodium infection: relatively small effect on Plasmodium
[3]; Example 12, NFV 400 mg/kg×10
  toxic and side effects on tumor-bearing mice: will not increase toxic and side effects on tumor-bearing mice
[3]; Example 12, continuous administration of nelfinavir alone
  effect on weight of tumor-bearing mice: relatively small effect on the weight of tumor-bearing mice

## Nc1nc2[nH]cc(CCc3ccc(C(=O)N[C@@H](CCC(=O)O)C(=O)O)cc3)c2c(=O)[nH]1 [PEM, pemetrexed]
[1]; Example 7, PEM 20 mg/kg×6 ip day 3, 7, 10, 14, 17, 21, Py day 7
  Significance, tumor growth (intergroup comparison): ** (“**” represents p<0.01)
[2]; Example 7, PEM 20 mg/kg×6 ip, Py day 7
  median survival time: 32.5 days
Plasmodium yoelii; Example 7, PEM 20 mg/kg×6 ip
  effect on Plasmodium infection: relatively small effect on Plasmodium; also recorded: no inhibitory effect on Plasmodium yoelii

## CC(=O)O[C@@]12CO[C@@H]1C[C@H](O)[C@@]1(C)C(=O)[C@H](O)C3=C(C)[C@@H](OC(=O)[C@H](O)[C@@H](NC(=O)OC(C)(C)C)c4ccccc4)C[C@@](O)([C@@H](OC(=O)c4ccccc4)[C@H]21)C3(C)C [docetaxel]
Plasmodium yoelii; Example 10, DTX high dosage 2 mg/kg×3
  effect on Plasmodium infection: significantly inhibit Plasmodium
Plasmodium yoelii; Example 10, DTX low dosage 2.2 mg/kg×3
  effect on Plasmodium infection: relatively small effect on Plasmodium
Plasmodium yoelii; Example 10, DTX medium dosage 6.7 mg/kg×3
  effect on Plasmodium infection: significantly inhibit Plasmodium
[3]; Example 10, in the combined therapy, DTX high dosage
  effect on weight of tumor-bearing mice: very significant effect in reducing the weight of the tumor-bearing mice
[3]; Example 10, in the combined therapy, DTX low dosage
  effect on weight of tumor-bearing mice: relatively small effects
[3]; Example 10, in the combined therapy, DTX medium dosage
  effect on weight of tumor-bearing mice: relatively small effects

## COc1cc([C@@H]2c3cc4c(cc3[C@@H](O[C@@H]3O[C@@H]5CO[C@@H](C)O[C@H]5[C@H](O)[C@H]3O)[C@H]3COC(=O)[C@H]23)OCO4)cc(OC)c1O [etoposide]
Plasmodium yoelii; Example 11, VP16 low and high dosage
  effect on Plasmodium infection: obvious inhibitory effect on Plasmodium

## CO[C@@]12[C@H](COC(N)=O)C3=C(C(=O)C(C)=C(N)C3=O)N1C[C@@H]1N[C@@H]12 [mitomycin]
Plasmodium yoelii; Example 9, MMC low, medium, high dosage, the higher concentration, the more obvious
  effect on Plasmodium infection: certain inhibitory effect on Plasmodium
[3]; Example 9, three combined treatment groups
  effect on weight of tumor-bearing mice: affected little
